The target in assay [1] is Histone deacetylase 1 (Homo sapiens, UniProt Q13547). The experiment in a line: Enzymatic Activity Assay. The procedure:
(§1) After a period of preincubation (incubation times and temperatures vary for different isoforms and are shown in table 1) 25 μL of solution containing the substrate were added. […] Enzymatic activity on recombinant human HDAC6 and HDAC1 was evaluated (Table 2) for each synthesized compound.

Assay [2] concerns the target T1, Histone deacetylase 6 (Homo sapiens, UniProt Q9UBN7).
T1 sequence (Q9UBN7 whole entry): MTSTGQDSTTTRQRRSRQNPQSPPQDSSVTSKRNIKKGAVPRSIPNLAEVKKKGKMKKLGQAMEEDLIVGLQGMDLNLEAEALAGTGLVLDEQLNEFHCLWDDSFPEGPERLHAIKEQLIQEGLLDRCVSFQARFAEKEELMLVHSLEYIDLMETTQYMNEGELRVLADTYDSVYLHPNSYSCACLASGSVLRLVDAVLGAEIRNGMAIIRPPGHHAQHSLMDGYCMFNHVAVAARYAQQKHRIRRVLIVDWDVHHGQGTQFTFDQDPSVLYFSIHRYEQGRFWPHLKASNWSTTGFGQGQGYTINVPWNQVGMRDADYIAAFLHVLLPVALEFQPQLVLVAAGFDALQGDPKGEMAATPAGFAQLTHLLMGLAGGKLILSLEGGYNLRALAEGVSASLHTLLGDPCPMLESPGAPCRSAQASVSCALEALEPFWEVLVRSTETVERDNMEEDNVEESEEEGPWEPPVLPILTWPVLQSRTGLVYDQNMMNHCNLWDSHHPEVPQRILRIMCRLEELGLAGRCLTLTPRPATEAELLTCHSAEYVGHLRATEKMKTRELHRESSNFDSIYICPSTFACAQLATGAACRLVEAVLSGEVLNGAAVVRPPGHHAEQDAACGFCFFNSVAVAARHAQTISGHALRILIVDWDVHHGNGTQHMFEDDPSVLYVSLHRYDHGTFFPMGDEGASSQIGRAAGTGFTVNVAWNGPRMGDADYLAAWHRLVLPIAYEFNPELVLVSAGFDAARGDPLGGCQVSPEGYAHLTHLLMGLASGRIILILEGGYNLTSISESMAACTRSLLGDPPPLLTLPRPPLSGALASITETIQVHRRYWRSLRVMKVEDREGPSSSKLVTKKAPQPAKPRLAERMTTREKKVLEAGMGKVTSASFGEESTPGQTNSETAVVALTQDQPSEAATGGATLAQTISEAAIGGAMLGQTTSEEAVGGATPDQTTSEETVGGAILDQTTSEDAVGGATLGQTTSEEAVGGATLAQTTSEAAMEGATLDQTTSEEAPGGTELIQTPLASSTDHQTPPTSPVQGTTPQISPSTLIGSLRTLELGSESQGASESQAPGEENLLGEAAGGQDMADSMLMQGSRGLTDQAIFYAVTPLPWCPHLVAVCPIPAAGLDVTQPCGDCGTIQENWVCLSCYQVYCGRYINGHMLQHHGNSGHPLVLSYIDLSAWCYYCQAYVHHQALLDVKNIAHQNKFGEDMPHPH
Briefly: Enzymatic Activity Assay. The procedure: as §1

Histone deacetylase 1, sequence (Q13547 whole entry, canonical isoform): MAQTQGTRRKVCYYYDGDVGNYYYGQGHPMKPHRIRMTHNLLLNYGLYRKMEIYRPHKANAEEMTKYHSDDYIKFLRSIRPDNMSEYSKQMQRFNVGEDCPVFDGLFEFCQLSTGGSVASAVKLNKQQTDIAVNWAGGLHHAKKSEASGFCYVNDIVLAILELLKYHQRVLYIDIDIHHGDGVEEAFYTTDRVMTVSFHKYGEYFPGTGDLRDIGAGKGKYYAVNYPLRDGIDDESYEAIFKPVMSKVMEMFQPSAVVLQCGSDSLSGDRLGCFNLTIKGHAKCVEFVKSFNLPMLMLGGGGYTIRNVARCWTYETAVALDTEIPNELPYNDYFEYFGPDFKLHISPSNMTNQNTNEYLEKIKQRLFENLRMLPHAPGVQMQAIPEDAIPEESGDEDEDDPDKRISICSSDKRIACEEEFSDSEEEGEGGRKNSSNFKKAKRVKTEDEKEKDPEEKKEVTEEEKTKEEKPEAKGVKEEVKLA

As to `NC(=O)c1cccc(-c2nnn(Cc3ccc(-c4nnc(C(F)F)o4)cn3)n2)c1` [US20230286970, Compound 29], the IC50 in assay [1] was above 200000 nM; in assay [2], 10 nM.

`NCc1ccc(-c2nnn(Cc3c(F)cc(-c4nnc(C(F)F)o4)cc3F)n2)cc1` [US20230286970, Compound 33]: the IC50 is above 200000 nM in assay [1] and 14 nM in assay [2].

In the case of `Nc1ncc(-c2cccc(-c3nnn(Cc4ccc(-c5nnc(C(F)F)o5)cn4)n3)c2)s1` [US20230286970, Compound 38], the IC50 in assay [1] is above 200000 nM; in assay [2], 18 nM.

As to `NCc1ccc(-c2cn(Cc3c(F)cc(-c4nnc(C(F)F)o4)cc3F)nn2)cc1` [US20230286970, Compound 44], the IC50 in assay [1] was determined as 163000 nM; in assay [2], 20 nM.

For the compound `Nc1ccc(-c2cn(Cc3ccc(-c4nnc(C(F)F)o4)cc3)nn2)cn1` [US20230286970, Compound 52], inhibition in assay [2] was half-maximal at 23 nM (IC50). This counts as double-digit nanomolar.

Turning to `O=C1NCc2ccc(-c3nnn(Cc4ccc(-c5nnc(C(F)F)o5)cc4)n3)cc21` [US20230286970, Compound 55], the values for the IC50 in assay [1] and in assay [2] were above 200000 nM and 24 nM, respectively.

For the compound `Oc1ccc(-c2nnn(Cc3ccc(-c4nnc(C(F)F)o4)cc3)n2)cc1` [US20230286970, Compound 56], the IC50 was above 200000 nM in assay [1] and 25 nM in assay [2].

As to `O=C1NCc2ccc(-c3nnn(Cc4c(F)cc(-c5nnc(C(F)F)o5)cc4F)n3)cc21` [US20230286970, Compound 57], the IC50 in assay [1] is above 200000 nM; in assay [2], 25 nM.

For `C[C@H](c1ccc(-c2nnc(C(F)F)o2)cc1)n1cc(-c2ccc(N)nc2)nn1` [US20230286970, Compound 106], the half-inhibitory concentration (IC50) in assay [2] came to 41 nM.

For the compound `O=C1Nc2ccc(-c3nnn(Cc4ccc(-c5nnc(C(F)F)o5)cc4)n3)cc2NC12CCCCC2` [US20230286970, Compound 157], the IC50 was above 200000 nM in assay [1] and 70 nM in assay [2].

On to `FC(F)c1nnc(-c2cnc(Cn3nnc(-c4cccs4)n3)nc2)o1` [US20230286970, Compound 187], for which the IC50 in assay [1] is above 200000 nM; in assay [2] it was 41 nM.

For the compound `CN(C)C(=Nc1ccc(-c2cn(Cc3ccc(-c4nnc(C(F)F)o4)cc3)nn2)cc1)N(C)C` [US20230286970, Compound 217], the IC50 in assay [1] is above 200000 nM; in assay [2] it was 154 nM.

As to `C[C@@H](c1ccc(-c2nnc(C(F)F)o2)cc1)n1cc(-c2ccc(N)nc2)nn1` [US20230286970, Compound 255], the IC50 in assay [2] turned out to be 377 nM.

Take `O=C(O)c1cccc(-c2nnn(Cc3ccc(-c4nnc(C(F)F)o4)cc3)n2)c1` [US20230286970, Compound 260]: the figures for the IC50 in assay [1] and in assay [2] were above 200000 nM and 480 nM, respectively.

With `O=C(O)c1cccc(-c2cn(Cc3ccc(-c4nnc(C(F)F)o4)cc3)nn2)c1` [US20230286970, Compound 275], the IC50 in assay [1] was above 200000 nM; in assay [2], 373 nM.

Turning to `CCN(Cc1cn(Cc2c(F)cc(-c3nnc(C(F)F)o3)cc2F)nn1)C(=O)Nc1cccnc1OC` [US20230286970, Compound 283], the IC50 in assay [1] was above 200000 nM; in assay [2], 225 nM.

Turning to `COc1ncc(NCc2ccc(-n3cc(Cc4ccc(-c5nnc(C(F)F)o5)cc4)nn3)cc2)cc1C(N)=O` [US20230286970, Compound 286], the IC50 in assay [1] was above 200000 nM; in assay [2], 99 nM.

In the case of `Nc1ncnc2sc(-c3cn(Cc4ccc(-c5nnc(C(F)F)o5)c(F)c4F)nn3)cc12` [US20230286970, Compound 384], 63 nM corresponded to half-maximal inhibition in assay [2] (IC50).

As for `CN(C)c1ccc2cc(-c3cn(Cc4c(F)cc(-c5nnc(C(F)F)o5)cc4F)nn3)ccc2n1` [US20230286970, Compound 399], the IC50 in assay [2] worked out at 247 nM.

On to `Nc1ccc(-n2cc(Cc3ccc(-c4nnc(C(F)F)o4)cc3)nn2)cn1` [US20230286970, Compound 413], for which the IC50 in assay [2] was determined as 515 nM. This IC50 lies about 2.1-fold higher than the previous one.

`Nc1ncnc2sc(-c3cn(Cc4cc(F)c(-c5nnc(C(F)F)o5)cc4F)nn3)cc12` [US20230286970, Compound 415] showed an IC50 in assay [2] of 49 nM. Compared with the last compound, the IC50 is about 11-fold lower.

As a reminder, the IC50 is the concentration that gives 50% inhibition. High values mean a need for much substance, low ones inhibition by little substance.

For the origin of these results see BindingDB's records for patent US20230286970 (Italfarmaco, 2023).
